Experimental findings from ChEMBL document CHEMBL1201862, “PubChem BioAssay data set” (2004) are described below.

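Protocol summary: plate cells (96-well), add compound at 5 concentrations, incubate 48 h, interpolate endpoints linearly. Abbreviation: GI50, concentration required for 50% inhibition of growth.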 The source made the active and inactive calls. No stated cut-off is given here; in the data, active = GI50 up to about 1.1 µM and inactive = higher.

Common to all, as to assay: NCI tumour cell line growth inhibition, 48 h
For experiment [1], the system named is SK-MEL-5.
The test system of experiment [2] is SF-268.
Experiment [3] relates to HCT-116.
Experiment [4] has as its system HT-29.
The subject of experiment [5] is OVCAR-4.
Experiment [6] deals with A549.
Experiment [7] relates to NCI-H23.
The subject of experiment [8] is SK-OV-3.
The test system of experiment [9] is SK-MEL-2.
Experiment [10] concerns OVCAR-3.
The subject of experiment [11] is PC-3.
Experiment [12] concerns OVCAR-5.
Experiment [13] deals with UO-31.
Experiment [14] has as its system LOX IMVI.
Experiment [15] deals with 786-0.
The test system of experiment [16] is K562.
In experiment [17] the test system is HOP-92.
In experiment [18] the test system is Malme-3M.
Experiment [19] relates to NCI-H226.
The test system of experiment [20] is RXF 393.

Turning to `C/C(Cl)=N\OC(=O)Nc1ccc(C)cc1`, the GI50 in [1] is 17.7 µM (inactive); in experiment [2], 15.8 µM (inactive); in experiment [3], 19.1 µM (inactive); in experiment [4], 22.9 µM (inactive); in [5] it was 18.5 µM (inactive); in [6], 18.2 µM (inactive). For the same compound, the GI50 in experiment [7] is 20.7 µM (inactive); in experiment [8] it was 17.3 µM (inactive); in experiment [9] it was 18.2 µM (inactive); in [10] it was 18 µM (inactive); in [11], 15.8 µM (inactive); in experiment [12], 18.5 µM (inactive). Moreover, the GI50 in [13] is 17.4 µM (inactive); in experiment [14], 17.5 µM (inactive); in experiment [15] it was 18.7 µM (inactive); in [16] it was 9.91 µM (inactive); in experiment [17], 20.7 µM (inactive); in experiment [18], 16.9 µM (inactive).
As for `CC(=O)NNc1nc(C)c(C(/C=C/c2ccc(Cl)cc2)=N\NS(=O)(=O)c2ccc(C)cc2)s1`, the GI50 in experiment [1], in experiment [2], in experiment [3], in experiment [4], in experiment [19] and in [5] was > 100 µM (inactive) in each case. Also, the GI50 in experiment [6], in [7], in experiment [20], in [8], in experiment [9] and in [10] was > 100 µM (inactive) in each case. In addition, the GI50 in [12], in experiment [13], in experiment [14], in experiment [15], in [16] and in experiment [17] was > 100 µM (inactive) in each case. Further, in experiment [18], the GI50 is > 100 µM (inactive).
On to `Clc1cc2ns[s+]c2cc1Cl`, for which the GI50 in [1] is > 37 µM (inactive); in experiment [2] it was 21.1 µM (inactive); in experiment [3], 41 µM (inactive); in experiment [4], 29.3 µM (inactive); in experiment [19], > 100 µM (inactive); in experiment [5], > 100 µM (inactive). Further, the GI50 in [6] was 56.9 µM (inactive); in [7] it was 73.8 µM (inactive); in experiment [20] it was > 100 µM (inactive); in experiment [8], > 100 µM (inactive); in [9], > 45.1 µM (inactive); in experiment [10] it was 65 µM (inactive). Besides, the GI50 was > 62.7 µM (inactive) in [12]; 28.6 µM (inactive) in experiment [13]; 9.48 µM (inactive) in [14]; > 75.9 µM (inactive) in experiment [15]; 4.55 µM (inactive) in experiment [16]; 36.1 µM (inactive) in experiment [17]. For the same compound, the GI50 in experiment [18] was > 100 µM (inactive).
In the case of `CCOP(C)(=O)C(Cc1c[nH]c2ccccc12)C(=O)O` (stereo not drawn), the GI50 in [1], in experiment [2], in experiment [3], in experiment [4], in experiment [6] and in experiment [8] was > 100 µM (inactive) in each case. Also, the GI50 in [9], in experiment [10], in experiment [11], in experiment [12], in experiment [13] and in experiment [15] was > 100 µM (inactive) each time. Moreover, the GI50 in experiment [16], in experiment [17] and in experiment [18] was > 100 µM (inactive) in each case.
Take `N#C/C(=C\c1cccc(O)c1)C(N)=O`: the GI50 in experiment [1], in experiment [2], in [3], in experiment [4], in [19] and in experiment [5] was > 100 µM (inactive) throughout. The GI50 is > 100 µM (inactive) in experiment [6]; > 100 µM (inactive) in experiment [7]; 61.4 µM (inactive) in experiment [20]; > 100 µM (inactive) in experiment [8]; > 100 µM (inactive) in [9]; > 100 µM (inactive) in [10]. In addition, the GI50 in experiment [12], in experiment [13], in experiment [14], in experiment [15], in experiment [16] and in [17] was > 100 µM (inactive) in each case. For the same compound, in experiment [18], the GI50 was > 100 µM (inactive).
For the compound `O=[N+]([O-])c1ccc(C(Cl)C(Cl)c2ccc(C(Cl)C(Cl)c3ccc([N+](=O)[O-])cc3[N+](=O)[O-])cc2)c([N+](=O)[O-])c1` (stereo not drawn), the GI50 is 0.991 µM (active) in experiment [1]; 1.89 µM (inactive) in experiment [2]; 0.931 µM (active) in [3]; 1.76 µM (inactive) in experiment [4]; 2.29 µM (inactive) in experiment [19]; 1.52 µM (inactive) in experiment [5]. Moreover, the GI50 in [6] is 1.63 µM (inactive); in [7], 1.52 µM (inactive); in [20], 0.964 µM (active); in experiment [8] it was 22.8 µM (inactive); in [9], 1.42 µM (inactive); in experiment [10], 0.254 µM (active). Also, the GI50 is 1.86 µM (inactive) in experiment [12]; 2.17 µM (inactive) in [13]; 1.36 µM (inactive) in [14]; 1.39 µM (inactive) in experiment [15]; 0.187 µM (active) in [16]; 1.28 µM (inactive) in experiment [17]. For the same compound, in experiment [18], the GI50 was 1.27 µM (inactive).
In the case of `Cc1nnc2nc(-c3ccc(Cl)cc3Cl)cc(-c3ccc(Cl)cc3)n12`, the GI50 in [1] is 68.5 µM (inactive); in experiment [2], 83.9 µM (inactive); in [3], > 100 µM (inactive); in experiment [4] it was 20.5 µM (inactive); in experiment [19], > 100 µM (inactive); in experiment [5] it was 23.3 µM (inactive). Also, the GI50 was 76.4 µM (inactive) in [6]; > 100 µM (inactive) in experiment [7]; > 100 µM (inactive) in [8]; 50.1 µM (inactive) in experiment [10]; 57.8 µM (inactive) in [11]; > 100 µM (inactive) in experiment [12]. Besides, the GI50 in experiment [13] is 24.4 µM (inactive); in experiment [14], > 100 µM (inactive); in experiment [15], > 100 µM (inactive); in [16], 50.4 µM (inactive); in experiment [17], 1.47 µM (inactive); in experiment [18] it was > 100 µM (inactive).
As for `O=C1C2C3CC(C4C5C=CC(C5)C34)C2C2C3CC(C12)C1C2C=CC(C2)C31` (stereo not drawn), the GI50 was > 100 µM (inactive) in experiment [1]; 90.8 µM (inactive) in experiment [2]; > 100 µM (inactive) in experiment [3]; > 100 µM (inactive) in experiment [4]; > 100 µM (inactive) in experiment [19]; > 100 µM (inactive) in experiment [5]. Moreover, the GI50 in experiment [6], in experiment [7], in experiment [20], in experiment [8], in experiment [9] and in experiment [10] was > 100 µM (inactive) each time. In addition, the GI50 was > 100 µM (inactive) in experiment [12]; > 100 µM (inactive) in [13]; 28.8 µM (inactive) in [14]; > 100 µM (inactive) in [15]; > 100 µM (inactive) in experiment [16]; > 100 µM (inactive) in [17]. In addition, in [18], the GI50 is > 100 µM (inactive).
For the compound `COc1cc2c(c(OC)c1OC)-c1ccc(SC)c(=O)cc1C(CC(=O)Oc1ccccc1F)C2` (stereo not drawn), the GI50 was 0.0215 µM (active) in experiment [1]; 0.036 µM (active) in [2]; < 0.0075 µM (active) in experiment [3]; 0.00841 µM (active) in experiment [4]; 0.0413 µM (active) in [19]; 1.03 µM (active) in [5]. The GI50 in experiment [6] was 0.0226 µM (active); in experiment [7] it was 0.0219 µM (active); in [20] it was < 0.0075 µM (active); in experiment [8] it was 0.0202 µM (active); in [9] it was 0.0251 µM (active); in experiment [10], 0.0119 µM (active). The GI50 in experiment [12] was 2.94 µM (inactive); in experiment [13] it was 0.127 µM (active); in [14], < 0.0075 µM (active); in experiment [15] it was < 0.0075 µM (active); in experiment [16], < 0.0075 µM (active); in experiment [17], 0.0377 µM (active). For the same compound, the GI50 in experiment [18] is 0.0575 µM (active).
As to `COC(=O)CCC(NC(=S)N/N=C(\C)c1nccs1)C(=O)OC` (stereo not drawn), the GI50 is 36.4 µM (inactive) in experiment [1]; 56.6 µM (inactive) in experiment [2]; 34.4 µM (inactive) in experiment [3]; 73.5 µM (inactive) in experiment [4]; 53.7 µM (inactive) in experiment [19]; 45.8 µM (inactive) in experiment [5]. The GI50 is 74.8 µM (inactive) in [6]; > 100 µM (inactive) in [7]; 42.2 µM (inactive) in experiment [20]; > 100 µM (inactive) in experiment [8]; > 100 µM (inactive) in [9]; 31.3 µM (inactive) in experiment [10]. For the same compound, the GI50 was 53 µM (inactive) in [12]; 49.3 µM (inactive) in experiment [13]; 52 µM (inactive) in experiment [14]; 69.3 µM (inactive) in [15]; 16.2 µM (inactive) in experiment [16]; > 100 µM (inactive) in experiment [17]. Besides, the GI50 in experiment [18] was > 100 µM (inactive).
For the compound `Cc1ccc(Oc2ccc(C(=O)c3cccc(C(=O)c4ccc(Oc5ccc(C)cc5)cc4)n3)cc2)cc1`, the GI50 in [1] is > 100 µM (inactive); in experiment [2] it was > 100 µM (inactive); in experiment [3] it was > 100 µM (inactive); in [4], > 100 µM (inactive); in experiment [19], > 100 µM (inactive); in experiment [5], 71.8 µM (inactive). Further, the GI50 in experiment [6], in experiment [7], in experiment [20], in [8], in experiment [9] and in experiment [10] was > 100 µM (inactive) in each case. Further, the GI50 in [12], in [13], in experiment [14], in experiment [15], in [16] and in experiment [17] was > 100 µM (inactive) each time. In [18], the GI50 was > 100 µM (inactive).
